Reference: paper PMC11277446, “Discovery of Cell-Permeable Allosteric Inhibitors of Liver Pyruvate Kinase: Design and Synthesis of Sulfone-Based Urolithins” (International Journal of Molecular Sciences, 2024)
Each block holds one molecule with its values, some of them ahead of it.

Columns and labels:
PKL [1] = details: Figure 2, background data; cited from earlier work
PKL [2] = tested on: PKL; design: method as in PMID 36753880; details: 10 μM in liver cell lysate; cited from earlier work
PKL [3] = biological target: T1, PKL (Homo sapiens, UniProt P30613); assay: Pyruvate kinase activity kinetic assay on HepG2 KO (PKL only) cell protein lysate; format: biochemical; details: read-out: IC50 of PKL enzymatic activity inhibition
T1 construct: HepG2 KO cells were lysed and protein lysated with CelLytic M; host or cells: HepG2 PKM CRISPR KO cells

PKL [4] = biological target: T1, PKL; assay: as above; format: biochemical
Protocol: (§1) HepG2 KO cells were lysed and protein lysated with CelLytic M (C2978, Sigma-Aldrich, St. Louis, MO, USA) lysis buffer. The effect of 10 µM compounds on pyruvate kinase activity on protein lysate was measured with the Pyruvate Kinase Assay Kit (ab83432, Abcam, Cambridge, UK), followed by the manufacturer’s instructions. 2 × 10^4 HepG2 WT cells and 1 × 10^5 HepG2 KO cells were seeded into 96-well plates for a pyruvate kinase activity assay on cells. Drugs were treated at 20 µM concentration on the cell for 4 h and washed with 250 µL of PBS. Cells were lysed with 50 µL PK assay buffer (ab83432, Abcam) and started reaction and kinetic O.D measurement with 50 µL PK assay buffer that contained the assay component (ab83432, Abcam). O.D. values were measured with a microplate reader (Hidex Sense Beta Plus, Turku, Finland) at 570 nm wavelength.

PKL in HepG2 KO cells = biological target: T2, PKL in HepG2 KO cells (Homo sapiens, UniProt P30613); assay: Pyruvate kinase activity assay on compound-treated HepG2 KO cells (whole-cell assay); format: cell-based
T2 construct: host or cells: HepG2 PKM CRISPR KO cells
Protocol: as §1

PKL [5] = biological target: T1, PKL; assay: Cellular Thermal Shift Assay (CETSA), PKL; format: cell-based; details: HepG2 WT cells, 2 h treatment, 60 °C heat shock 5 min, western blot
Protocol: (§2) HepG2 WT cells were trypsinized and transferred into a 1.5 mL tube at 500,000 cells per mL concentration. Compound 15e was treated with 10 µM and 20 µM in the 1.5 mL tube and incubated for 2 h in a 37 °C CO2 incubator. Tubes sustained heat shock at 60 °C for 5 min. with a pre-heated heat block. After centrifugation for heated cells at 13,000 rpm for 1 min, cell pellets were lysed with 50 µL of Native lysis Buffer (ab156035, Abcam). Centrifugation was again used to purify soluble proteins in a lysed solution, and the same volume (9 µL) of each group was analyzed using Western blot.

ChREBP = assay: Western blot of DNL pathway proteins in HepG2 steatosis model, ChREBP; format: cell-based, human; details: 5 µM, one week
Protocol: (§3) After steatosis induction with a designated concentration of compounds, whole cell lysate was prepared with CelLytic M (C2978, Sigma-Aldrich) buffer. SDS PAGE was performed using Mini-PROTEAN® TGX™ Precast Gels (Bio-Rad, Hercules, CA, USA) and transferred using the Trans-Blot® Turbo™ Transfer System (Bio-Rad). FASN (ab22759, Abcam), ChREBP (92809, Abcam), PKL (06653, Sigma), PKM (4053S, Cell Signaling Technology, Danvers, MA, USA), β-actin (ab8227, Abcam), and GAPDH (sc-47724, Santa Cruz Biotechnology, Inc., Dallas, TX, USA) were blotted as primary antibodies overnight. Secondary antibodies, Goat Anti-Rabbit HRP (ab205718, Abcam) and goat anti-mouse IgG-HRP (sc2005, Santa Cruz Biotechnology, Inc.), were blotted for one hour. The protein band was detected with ImageQuantTMLAS 500 (29-0050-63, GE Healthcare Bio-Sciences AB, Uppsala, Sweden).

[6] = tested on: PK activity in HepG2 WT cells (PKM and PKL); assay: Pyruvate kinase activity assay on compound-treated HepG2 WT cells; format: cell-based, human; details: 20 µM, 4 h
Protocol: as §1

[7] = tested on: HepG2 de novo lipogenic (DNL) steatosis model; assay: TAG measurement in HepG2 DNL steatosis model; format: cell-based, human; details: one week
Protocol: (§4) HepG2 wild-type cells and HepG2 PKM CRISPR KO cells were purchased from the genome engineering company Synthego (Menlo Park, CA, USA). Cells were maintained with growth media RPMI 1640 (R2405, Sigma-Aldrich) and supplemented with 10% fetal bovine serum (FBS, F7524, Sigma-Aldrich) and 1% P/S (P4333, Sigma-Aldrich). Steatosis induction media was prepared as DMEM high glucose (D0819, Sigma-Aldrich) with 10% FBS, 1% P/S media supplemented with 10 µg/mL insulin (I9278, Sigma-Aldrich), and 10 µM T0901317 (T2320, Sigma-Aldrich) for one week. HepG2 cells were seeded 6 × 10^4 cells per well into a 96-well plate for TAG and MTT assays after steatosis and 1 × 10^6 cells per well into a 6-well plate for western blot analysis after steatosis. HepG2 cells were incubated with steatosis-inducing media for one week by 3 days + 2 days + 2 days with a total of three media exchanges.
(§5) HepG2 cells were seeded at 6 × 10^4 cells per well into 96-well plates and induced steatosis for one week with a designated concentration of small molecules. After steatosis induction, cells were washed with 200 µL of PBS, and triglyceride contents were measured by the Triglyceride Assay Kit-Quantification (ab65336, Abcam) following the manufacturer’s instructions. O.D. values were detected with a microplate reader at 570 nm (Hidex Sense Beta Plus). A 5 mg/mL MTT (M2128, Sigma-Aldrich) solution in PBS (10 µL) was added to each well for the MTT assay. After 1 h, the MTT solution and all media were removed from the wells. 100 μL of DMSO was added and mixed to dissolve the formazan crystals. Cell viability was analyzed by measuring the absorbance of the dissolved formazan in a microplate reader at a wavelength of 570 nm with a microplate reader (Hidex Sense Beta Plus).

FASN = assay: Western blot of DNL pathway proteins in HepG2 steatosis model, FASN; format: cell-based, human; details: 5 µM, one week
Protocol: as §3

PKM [8] = assay: Western blot of DNL pathway proteins in HepG2 steatosis model, PKM; format: cell-based, human; details: 5 µM, one week
Protocol: as §3

PKM [9] = biological target: T3, PKM (Homo sapiens, UniProt P14618); assay: Cellular Thermal Shift Assay (CETSA), PKM; format: cell-based; details: HepG2 WT cells, 2 h treatment, 60 °C heat shock 5 min, western blot
T3 construct: HepG2 WT cells were trypsinized and transferred into a 1.5 mL tube; host or cells: HepG2 WT cells
Protocol: as §2

[10] = tested on: HepG2 de novo lipogenic (DNL) steatosis model; assay: MTT cell viability assay in HepG2 DNL steatosis model; format: cell-based, human
Protocol: as §4, with “HepG2 cells were incubated with steatosis-inducing media for one week by 3 days + 2 days + 2 days with a total of three media exchanges.” left out
as §5, with “A 5 mg/mL MTT (M2128, Sigma-Aldrich) solution in PBS (10 µL) was added to each well for the MTT assay. After 1 h, the MTT solution and all media were removed from the wells. 100 μL of DMSO was added and mixed to dissolve the formazan crystals.” left out

PKL [11] = assay: Western blot of DNL pathway proteins in HepG2 steatosis model, PKL; format: cell-based, human; details: 5 µM, one week
Protocol: as §3

[12] = tested on: HepG2 de novo lipogenic (DNL) steatosis model; design: method as in PMID 37674987; details: cited from earlier work

T1 sequence (P30613 1-543 isoform P30613-2): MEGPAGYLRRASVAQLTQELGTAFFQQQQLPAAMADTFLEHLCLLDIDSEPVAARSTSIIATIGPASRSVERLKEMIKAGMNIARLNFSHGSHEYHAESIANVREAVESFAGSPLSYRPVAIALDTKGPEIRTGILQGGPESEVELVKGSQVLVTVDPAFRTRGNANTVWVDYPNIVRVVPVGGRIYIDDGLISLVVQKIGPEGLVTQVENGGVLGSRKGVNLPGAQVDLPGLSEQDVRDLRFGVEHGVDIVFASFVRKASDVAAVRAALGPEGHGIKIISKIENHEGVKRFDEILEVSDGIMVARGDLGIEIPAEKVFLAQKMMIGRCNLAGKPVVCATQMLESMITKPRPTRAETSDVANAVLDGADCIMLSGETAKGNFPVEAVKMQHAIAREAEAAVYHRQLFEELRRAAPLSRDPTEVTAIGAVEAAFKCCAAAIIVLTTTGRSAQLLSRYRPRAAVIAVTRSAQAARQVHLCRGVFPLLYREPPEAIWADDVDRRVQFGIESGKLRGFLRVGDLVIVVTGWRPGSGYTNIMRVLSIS
T2 sequence (P30613 1-543 isoform P30613-2): as above
T3 sequence (P14618 2-531 limits assumed): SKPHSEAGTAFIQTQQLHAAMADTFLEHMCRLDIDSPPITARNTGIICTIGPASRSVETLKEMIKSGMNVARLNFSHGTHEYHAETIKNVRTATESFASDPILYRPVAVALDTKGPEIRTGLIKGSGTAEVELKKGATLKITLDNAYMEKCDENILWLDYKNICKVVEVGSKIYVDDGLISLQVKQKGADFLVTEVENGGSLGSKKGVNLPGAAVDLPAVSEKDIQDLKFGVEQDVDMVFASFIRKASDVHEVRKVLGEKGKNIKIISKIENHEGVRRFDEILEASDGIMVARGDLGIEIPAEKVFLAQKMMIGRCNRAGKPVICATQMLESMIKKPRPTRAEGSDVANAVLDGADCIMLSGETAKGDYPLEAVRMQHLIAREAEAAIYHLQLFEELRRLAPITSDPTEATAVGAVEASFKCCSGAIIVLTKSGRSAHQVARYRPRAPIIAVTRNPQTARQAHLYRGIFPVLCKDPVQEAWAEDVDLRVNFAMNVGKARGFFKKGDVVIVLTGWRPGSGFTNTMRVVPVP

Compound: O=c1oc2c(O)c(O)cc3c(=O)oc4c(O)c(O)cc1c4c23 [Ellagic acid, ellagic acid]
inhibition on whole cell assay (PKL [1]): didn't observe inhibition on whole cell assay | inhibition of PKL (PKL [2]): 21%

Compound: O=c1oc2cc(O)ccc2c2cc(O)c(O)cc12 [Urolithin C, urolithin C, reference compound]
IC50 (PKL [3]): 4.7 µM | PKL inhibition in whole cells (PKL in HepG2 KO cells; 20 µM, 4 h, HepG2 KO cells): did not inhibit PKL activity in cells | inhibition at 10 µM (PKL [4]): 33% | inhibition of PKL (PKL [2]): 33%

Compound: N#Cc1c(NC(=O)c2cccc3ccccc23)sc2c1CCCC2 [JNK-IN-5A]
effect on TAG [12]: reduced TAG

More lines, main results first:

IC50 (PKL [3]): 17.3 µM | inhibition at 10 µM (PKL [4]): 47.6%
Compound: O=S1(=O)c2cc(O)c(O)cc2-c2cc(O)ccc2N1Cc1ccccc1 [15a, 6-benzyl-2,3,9-trihydroxy-6H-dibenzo[c,e][1,2]thiazine 5,5-dioxide]

IC50 (PKL [3]): 11.5 µM | inhibition at 10 µM (PKL [4]): 50.8%
Compound: O=S1(=O)c2cc(O)c(O)cc2-c2cc(O)ccc2N1Cc1ccc(F)cc1 [18a, 6-(4-fluorobenzyl)-2,3,9-trihydroxy-6H-dibenzo[c,e][1,2]thiazine 5,5-dioxide]

IC50 (PKL [3]): 7.1 µM | inhibition at 10 µM (PKL [4]): 29.8%
Compound: O=S1(=O)c2cc(O)c(O)cc2-c2cc(O)c(O)cc2N1Cc1ccccc1 [15d, 6-benzyl-2,3,8,9-tetrahydroxy-6H-dibenzo[c,e][1,2]thiazine 5,5-dioxide]

melting point: 189 to 190 °C
Compound: O=S1(=O)c2cc(O)c(O)cc2-c2ccc(C(F)(F)F)cc2N1Cc1ccc(F)cc1 [18e, 6-(4-fluorobenzyl)-2,3-dihydroxy-8-(trifluoromethyl)-6H-dibenzo[c,e][1,2]thiazine 5,5-dioxide]

decrease in PKL level (CETSA) (PKL [5]): 38% | IC50 (PKL [3]): 10.8 µM | activity at 20 µM (PKL in HepG2 KO cells; 20 µM in culture media for 4 h, HepG2 KO cells): 67.1% | PKL inhibition in whole cells (PKL in HepG2 KO cells; 20 µM, 4 h, HepG2 KO cells): significant PKL inhibition | inhibition at 20 µM (PKL in HepG2 KO cells; 20 µM, 4 h, HepG2 KO cells (PKL only), Figure 6a, read-out: inhibition of PK activity): 25% | inhibition at 10 µM (PKL [4]): 42.9% | increase in PKM level (CETSA) (PKM [9]): 12%
Compound: O=S1(=O)c2cc(O)c(O)cc2-c2ccc(C(F)(F)F)cc2N1Cc1ccccc1 [15e, 6-benzyl-2,3-dihydroxy-8-(trifluoromethyl)-6H-dibenzo[c,e][1,2]thiazine 5,5-dioxide]
protein level of ChREBP (ChREBP): remained unaffected | activation of PK activity [6]: 9% | TAG contents ([7]; 0.625 µM): 80.4% ± 3.2 | TAG contents ([7]; 1.25 µM): 62.7% ± 2.9 | TAG contents ([7]; 2.5 µM): 56.3% ± 1.9 | TAG contents ([7]; 5 µM): 55.6% ± 2.4 | reduction in expression level of FASN (FASN): up to 79% | protein level of PKM (PKM [8]): remained unaffected | cytotoxicity ([10]; 5 µM to 0.625 µM, one week): did not show cytotoxicity | toxicity ([10]; 10 µM, one-week DNL steatosis procedure): high toxicity | reduction in expression level of PKL (PKL [11]): 45%

IC50 (PKL [3]): 18.7 µM | inhibition at 10 µM (PKL [4]): 44.1%
Compound: O=S(=O)(NCc1ccc(F)cc1)c1cc(O)c(O)cc1-c1ccc(O)c(O)c1 [12d, N-(4-fluorobenzyl)-3′,4,4′,5-tetrahydroxy-[1,1′-biphenyl]-2-sulfonamide]

IC50 (PKL [3]): 4.3 µM | inhibition at 10 µM (PKL [4]): 40.9%
Compound: O=S(=O)(NCc1ccccc1)c1cc(O)c(O)cc1-c1ccc(O)c(O)c1 [9d, N-benzyl-3′,4,4′,5-tetrahydroxy-[1,1′-biphenyl]-2-sulfonamide]
